Laboratory results: paper PMC9538324 (Journal of medical virology, 2022)

Legend:
SARS-CoV-2 Beta variant = test: Virucidal assay; conditions: virus pretreated with 10 μM, compared with untreated and post-treated controls
[1] = human, in vivo; cited from earlier work

CCc1nc(C(N)=O)c(Nc2ccc(N3CCC(N4CCN(C)CC4)CC3)c(OC)c2)nc1NC1CCOCC1 [Gilteritinib, gilteritinib]
virucidal effect on virus viability (SARS-CoV-2 Beta variant): did not greatly reduce viability
clinical outcome [1]: successful remission
